ChEMBL document CHEMBL4251666, “Quest for Efficacious Next-Generation Taxoid Anticancer Agents and Their Tumor-Targeted Delivery” (J Nat Prod, 2018)

How the values were obtained:
[1] = test system: MCF7; experiment: Cytotoxicity against human paclitaxel-resistant MCF7 cells after 72 hrs by MTT assay; type: functional, cell-based; settings: MCF7, 72 h
[2] = test system: HCT-116; experiment: Cytotoxicity against CD133 positive human HCT116 cells; type: functional, cell-based
[3] = test system: A549; experiment: Cytotoxicity against human A549 cells; type: functional, cell-based
[4] = test system: A121; experiment: Cytotoxicity against human A121 cells; type: functional, cell-based
[5] = test system: MCF7; experiment: Cytotoxicity against human MCF7 cells; type: functional, cell-based
[6] = Cytotoxicity against human MDA435/LCC6 cells; type: functional, cell-based; settings: MDA-435/LCC6
[7] = Cytotoxicity against human CD133/CD44 positive PPT2 cells assessed as cell death at 0.01 to 10 uM after 72 hrs by MTT assay; type: functional
[8] = Cytotoxicity against human CD133/CD44 positive PC3MM2 cells assessed as cell death at 0.01 to 10 uM after 72 hrs by MTT assay; type: functional

Row | Structure (SMILES) | IC50 [1] [nM] | IC50 [2] [nM] | also measured
1 | CC(=O)O[C@@]12CO[C@@H]1C[C@H](O)[C@@]1(C)C(=O)[C@H](OC(=O)C3CC3)C3=C(C)[C@@H](OC(=O)[C@H](O)[C@H](C=C(C)C)NC(=O)OC(C)(C)C)C[C@@](O)([C@@H](OC(=O)c4ccccc4)[C@H]21)C3(C)C | 80.5 | 0.28 | 
2 | CC(=O)O[C@@]12CO[C@@H]1C[C@H](O)[C@@]1(C)C(=O)[C@H](OC(=O)N(C)C)C3=C(C)[C@@H](OC(=O)[C@H](O)[C@H](C=C(C)C)NC(=O)OC(C)(C)C)C[C@@](O)([C@@H](OC(=O)c4ccccc4)[C@H]21)C3(C)C |  | 0.83 | 
3 | CC(=O)O[C@H]1C(=O)[C@@]2(C)[C@H]([C@H](OC(=O)c3ccccc3)[C@]34OC(=O)O[C@H]3[C@H](OC(=O)[C@H](O)[C@H](C=C(C)C)NC(=O)OC(C)(C)C)C(C)=C1C4(C)C)[C@]1(OC(C)=O)CO[C@@H]1C[C@@H]2O | 66.7 |  | 
4 | CC(=O)O[C@H]1C(=O)[C@@]2(C)[C@H]([C@H](OC(=O)C=C(C)C)[C@]3(O)C[C@H](OC(=O)[C@H](O)[C@H](C=C(C)C)NC(=O)OC(C)(C)C)C(C)=C1C3(C)C)[C@]1(OC(C)=O)CO[C@@H]1C[C@@H]2O |  |  | IC50 [3]: 0.9 nM; IC50 [4]: 0.9 nM; IC50 [5]: 0.9 nM
5 | CC(=O)O[C@@]12CO[C@@H]1C[C@H](O)[C@@]1(C)C(=O)[C@H](OC(=O)C3CC3)C3=C(C)[C@@H](OC(=O)[C@H](O)[C@H](C=C(C)C)NC(=O)OC(C)(C)C)C[C@@](O)([C@@H](OC(=O)c4cccc(OC(F)(F)F)c4)[C@H]21)C3(C)C | 34.9 |  | 
6 | CC(=O)O[C@@]12CO[C@@H]1C[C@H](O)[C@@]1(C)C(=O)[C@H](OC(=O)N(C)C)C3=C(C)[C@@H](OC(=O)[C@H](O)[C@H](C=C(C)C)NC(=O)OC(C)(C)C)C[C@@](O)([C@@H](OC(=O)c4cccc(OC(F)(F)F)c4)[C@H]21)C3(C)C | 31.4 |  | 
7 | CC(=O)O[C@@]12CO[C@@H]1C[C@H](O)[C@@]1(C)C(=O)[C@H](OC(=O)N(C)C)C3=C(C)[C@@H](OC(=O)[C@H](O)[C@H](C=C(C)C)NC(=O)OC(C)(C)C)C[C@@](O)([C@@H](OC(=O)c4cccc(C)c4)[C@H]21)C3(C)C |  | 0.24 | 
8 | CC(=O)O[C@H]1C(=O)[C@@]2(C)[C@H]([C@@H]3OC(=O)c4ccccc4OC/C=C/CC[C@H](NC(=O)OC(C)(C)C)[C@@H](O)C(=O)O[C@H]4C[C@]3(O)C(C)(C)C1=C4C)[C@]1(OC(C)=O)CO[C@@H]1C[C@@H]2O |  |  | IC50 [6]: 390 nM
9 | CC(=O)O[C@H]1C(=O)[C@@]2(C)[C@H]([C@H](OC(=O)c3cccc(OC(F)(F)F)c3)[C@]3(O)C[C@H](OC(=O)[C@H](O)[C@H](C=C(C)C)NC(=O)OC(C)(C)C)C(C)=C1C3(C)C)[C@]1(OC(C)=O)CO[C@@H]1C[C@@H]2O | 19 |  | 
10 | CCC(=O)O[C@H]1C(=O)[C@@]2(C)[C@H]([C@H](OC(=O)c3cccc(OC)c3)[C@]3(O)C[C@H](OC(=O)[C@H](O)[C@H](C=C(C)C)NC(=O)OC(C)(C)C)C(C)=C1C3(C)C)[C@]1(OC(C)=O)CO[C@@H]1C[C@@H]2O | 21.7 |  | 
11 | CC(=O)O[C@@]12CO[C@@H]1C[C@H](O)[C@@]1(C)C(=O)[C@H](OC(=O)N(C)C)C3=C(C)[C@@H](OC(=O)[C@H](O)[C@H](C=C(F)F)NC(=O)OC(C)(C)C)C[C@@](O)([C@@H](OC(=O)c4ccccc4)[C@H]21)C3(C)C |  | 0.14 | 
12 | COc1cccc2c1C(=O)c1c(O)c3c(c(O)c1C2=O)C[C@@](O)(C(=O)CO)C[C@@H]3O[C@H]1C[C@H](N)[C@H](O)[C@H](C)O1 [DOXORUBICIN] |  | 78 | 
13 | CO[C@]12C=C[C@](C)(O1)[C@@H](OC(=O)/C=C/c1cn(C)cn1)C[C@H]1C(C)=CC[C@H](C(C)C)[C@H]1/C=C\2CO[C@@H]1OC[C@@H](O)[C@@H](O)[C@@H]1OC(C)=O [ELEUTHEROBIN] |  |  | Activity [7]: 60%; Activity [8]: 60%
14 | CN(Cc1cnc2nc(N)nc(N)c2n1)c1ccc(C(=O)N[C@@H](CCC(=O)O)C(=O)O)cc1 [METHOTREXATE] |  | 32.7 | 
15 | CC(=O)O[C@H]1C(=O)[C@@]2(C)[C@H]([C@H](OC(=O)c3ccccc3)[C@]3(O)C[C@H](OC(=O)[C@H](O)[C@@H](NC(=O)c4ccccc4)c4ccccc4)C(C)=C1C3(C)C)[C@]1(OC(C)=O)CO[C@@H]1C[C@@H]2O [PACLITAXEL] |  | 33.8 | 
16 | CC[C@@]1(O)C(=O)OCc2c1cc1n(c2=O)Cc2cc3c(CN(C)C)c(O)ccc3nc2-1 [TOPOTECAN] |  | 451 | 
